target: Human neutrophil elastase (Homo sapiens (Human), UniProt P08246); assay: Human Neutrophil Elastase Assay; assay type: biochemical; settings: substrate MeOSuc-Ala-Ala-Pro-Val-AMC 250 μM, pH 7.5, fluorescence
Method: Human Neutrophil Elastase Assay
All other materials were of the highest grade commercially available.
The following buffers were used: Compound buffer: 100 mM Tris, 500 mM NaCl, adjusted to pH 7.5; Assay buffer: 100 mM Tris, 500 mM NaCl, adjusted to pH 7.5, containing 0.01% BSA.
Assay conditions: Test compounds were prediluted in DMSO and subsequently in compound buffer (5% DMSO final). […] After inactivation of the enzyme, fluorescence intensities were measured at 380 nm excitation and 460 nm emission wavelengths.
Each plate contains wells with a high value control (DMSO+enzyme+substrate) and wells with a low value control (DMSO+inactivated enzyme+substrate). IC50 values were estimated using a sigmoidal concentration response curve with variable slope. Means of low values were taken as 0%, means of high values as 100%. IC50 values of selected compound in the Neutrophil Elastase assay: […]

Sequence of Human neutrophil elastase (P08246 30-267): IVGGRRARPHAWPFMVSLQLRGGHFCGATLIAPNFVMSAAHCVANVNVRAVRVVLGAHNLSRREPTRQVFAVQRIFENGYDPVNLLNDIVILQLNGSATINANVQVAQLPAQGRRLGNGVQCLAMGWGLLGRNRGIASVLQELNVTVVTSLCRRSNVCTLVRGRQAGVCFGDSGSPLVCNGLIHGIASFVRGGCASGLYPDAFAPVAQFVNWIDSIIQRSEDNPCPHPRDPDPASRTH

IC50 [nM] | SMILES
8.1 | COC[C@H](C)n1cc(C(=O)NCc2ccc(S(C)(=O)=O)cc2)c(=O)c(-c2cccc(C(F)F)c2)c1C [Example 42, (S)-5-(3-Difluoromethyl-phenyl)-1-(2-methoxy-1-methyl-ethyl)-6-methyl-4-oxo-1,4-dihydro-pyridine-3-carboxylic acid 4-methanesulfonyl-benzylamide]
5.2 | Cc1c(-c2cccc(C(F)(F)F)c2)c(=O)c(C(=O)NCc2ccc(S(=O)(=O)C3CC3)cc2)cn1C(C)C [Example 31, 1-Isopropyl-6-methyl-4-oxo-5-(3-trifluoromethyl-phenyl)-1,4-dihydro-pyridine-3-carboxylic acid 4-cyclopropanesulfonyl-benzylamide]
42 | Cc1c(-c2cccc(C(F)F)c2)c(=O)c(C(=O)NCc2ccc(S(N)(=O)=O)cc2)cn1C(C)C [Example 4.10]
35 | CC[C@@H](C)n1cc(C(=O)NCc2ccc(S(C)(=O)=O)cc2)c(=O)c(-c2ccnc(C(F)(F)F)c2)c1C [Example 11.2, (R)-1-sec-Butyl-2-methyl-4-oxo-2′-trifluoromethyl-1,4-dihydro-[3,4]bipyridinyl-5-carboxylic acid 4-methanesulfonyl-benzylamide]
4 | Cc1c(-c2cccc(C(F)(F)F)c2)c(=O)c(C(=O)NCc2ccc3c(c2)CCS3(=O)=O)cn1C(C)C [Example 29.1, 1-Isopropyl-6-methyl-4-oxo-5-(3-trifluoromethyl-phenyl)-1,4-dihydro-pyridine-3-carboxylic acid (1,1-dioxo-2,3-dihydro-1H-1λ^6-benzo[b]thiophen-5-ylmethyl)-amide]
8 | CCC(CC)n1cc(C(=O)NCc2ccc(S(C)(=O)=O)cc2)c(=O)c(-c2cccc(C(F)F)c2)c1C [Example 15.2, 5-(3-Difluoromethyl-phenyl)-1-(1-ethyl-propyl)-6-methyl-4-oxo-1,4-dihydro-pyridine-3-carboxylic acid 4-methanesulfonyl-benzylamide]
46 | Cc1c(-c2cccc(C(F)(F)F)c2)c(=O)c(C(=O)NCc2ccc(S(C)(=O)=O)cc2)cn1CC(F)F [Example 46, 1-(2,2-Difluoro-ethyl)-6-methyl-4-oxo-5-(3-trifluoromethyl-phenyl)-1,4-dihydro-pyridine-3-carboxylic acid 4-methanesulfonyl-benzylamide]
30 | Cc1c(-c2cccc(C(F)(F)F)c2)c(=O)c(C(=O)NCc2ccc(S(C)(=O)=O)cc2)cn1C1CC1 [Example 6, 1-Cyclopropyl-6-methyl-4-oxo-5-(3-trifluoromethyl-phenyl)-1,4-dihydro-pyridine-3-carboxylic acid 4-methanesulfonyl-benzylamide]
22 | CC[C@H](C)n1cc(C(=O)NCc2nnc(C)o2)c(=O)c(-c2cccc(C(F)F)c2)c1C [Example 26, (S)-1-sec-Butyl-5-(3-difluoromethyl-phenyl)-6-methyl-4-oxo-1,4-dihydro-pyridine-3-carboxylic acid (5-methyl-[1,3,4]oxadiazol-2-ylmethyl)-amide]
98 | Cc1c(-c2cccc(C(F)F)c2)c(=O)c(C(=O)NCc2cccnn2)cn1C(C)C [Example 4.1]
31 | Cc1c(-c2cccc(C(F)F)c2)c(=O)c(C(=O)NCc2ccc(S(C)(=O)=O)s2)cn1C(C)C [Example 40, 5-(3-Difluoromethyl-phenyl)-1-isopropyl-6-methyl-4-oxo-1,4-dihydro-pyridine-3-carboxylic acid (5-methanesulfonyl-thiophen-2-ylmethyl)-amide]
97 | Cc1c(-c2cccc(C(F)(F)F)c2)c(=O)c(C(=O)NCc2ccncc2)cn1C(C)C [Example 3.2]
45 | Cc1c(-c2cccc(C(F)F)c2)c(=O)c(C(=O)NCc2ccc3c(cnn3C)c2)cn1C(C)C [Example 4.7]
27 | Cc1cc(S(C)(=O)=O)ccc1CNC(=O)c1cn(C(C)C)c(C)c(-c2cccc(C(F)F)c2)c1=O [Example 37, 5-(3-Difluoromethyl-phenyl)-1-isopropyl-6-methyl-4-oxo-1,4-dihydro-pyridine-3-carboxylic acid 4-methanesulfonyl-2-methyl-benzylamide]
27 | Cc1c(-c2cccc(C(F)(F)F)c2)c(=O)c(C(=O)NCc2ccc(S(C)(=O)=O)cc2)cn1C1CCC1 [Example 7, 1-Cyclobutyl-6-methyl-4-oxo-5-(3-trifluoromethyl-phenyl)-1,4-dihydro-pyridine-3-carboxylic acid 4-methanesulfonyl-benzylamide]
12 | CC[C@H](C)n1cc(C(=O)NCc2ccc(S(C)(=O)=O)cc2)c(=O)c(-c2cccc(C(F)F)c2)c1C [Example 12.2, (S)-1-sec-Butyl-5-(3-difluoromethyl-phenyl)-6-methyl-4-oxo-1,4-dihydro-pyridine-3-carboxylic acid 4-methanesulfonyl-benzylamide]

IC50 [nM] | SMILES
11 | Cc1c(-c2cccc(C(F)(F)F)c2)c(=O)c(C(=O)NCc2ccc3c(c2)C=CS3(=O)=O)cn1C(C)C [Example 48, 1-Isopropyl-6-methyl-4-oxo-5-(3-trifluoromethyl-phenyl)-1,4-dihydro-pyridine-3-carboxylic acid (1,1-dioxo-1H-1λ^6-benzo[b]thiophen-5-ylmethyl)-amide]
17 | Cc1c(-c2cccc(C(F)F)c2)c(=O)c(C(=O)NCc2ccc(S(C)(=O)=O)cc2F)cn1C(C)C [Example 35, 5-(3-Difluoromethyl-phenyl)-1-isopropyl-6-methyl-4-oxo-1,4-dihydro-pyridine-3-carboxylic acid 2-fluoro-4-methanesulfonyl-benzylamide]
89 | Cc1c(-c2cccc(C(F)(F)F)c2)c(=O)c(C(=O)NCc2cccc(S(C)(=O)=O)c2)cn1C(C)C [Example 3.6]
5.3 | Cc1c(-c2cccc(C(F)(F)F)c2)c(=O)c(C(=O)NCc2cn3c(n2)S(=O)(=O)CC3)cn1C(C)C [Example 38, 1-Isopropyl-6-methyl-4-oxo-5-(3-trifluoromethyl-phenyl)-1,4-dihydro-pyridine-3-carboxylic acid (1,1-dioxo-2,3-dihydro-1H-1λ^6-imidazo[2,1-b]thiazol-6-ylmethyl)-amide]
69 | Cc1c(-c2cccc(C(F)F)c2)c(=O)c(C(=O)NCc2ccc(N3CCNC3=O)cc2)cn1C(C)C [Example 4.12]
90 | Cc1c(-c2cccc(C(F)(F)F)c2)c(=O)c(C(=O)NCc2cccnn2)cn1C(C)C [Example 3.3]
19 | Cc1cc(S(C)(=O)=O)ccc1CNC(=O)c1cn(C(C)C)c(C)c(-c2cccc(C(F)(F)F)c2)c1=O [Example 36, 1-Isopropyl-6-methyl-4-oxo-5-(3-trifluoromethyl-phenyl)-1,4-dihydro-pyridine-3-carboxylic acid 4-methanesulfonyl-2-methyl-benzylamide]
11 | CC[C@H](C)n1cc(C(=O)NCc2ccc(S(C)(=O)=O)cn2)c(=O)c(-c2cccc(C(F)F)c2)c1C [Example 20.2, (S)-1-sec-Butyl-5-(3-difluoromethyl-phenyl)-6-methyl-4-oxo-1,4-dihydro-pyridine-3-carboxylic acid (5-methanesulfonyl-pyridin-2-ylmethyl)-amide]
54 | CC[C@H](C)n1cc(C(=O)NCc2ccc(S(C)(=O)=O)cc2)c(=O)c(-c2ccnc(C(F)(F)F)c2)c1C [Example 12.3, (S)-1-sec-Butyl-2-methyl-4-oxo-2′-trifluoromethyl-1,4-dihydro-[3,4]bipyridinyl-5-carboxylic acid 4-methanesulfonyl-benzylamide]
18 | Cc1c(-c2cccc(C(F)F)c2)c(=O)c(C(=O)NCc2ccc(S(C)(=O)=O)cc2)cn1C1CCCC1 [Example 9.2, 1-Cyclopentyl-5-(3-difluoromethyl-phenyl)-6-methyl-4-oxo-1,4-dihydro-pyridine-3-carboxylic acid 4-methanesulfonyl-benzylamide]
12 | CCC(CC)n1cc(C(=O)NCc2ccc(S(C)(=O)=O)cn2)c(=O)c(-c2cccc(C(F)(F)F)c2)c1C [Example 23.1, 1-(1-Ethyl-propyl)-6-methyl-4-oxo-5-(3-trifluoromethyl-phenyl)-1,4-dihydro-pyridine-3-carboxylic acid (5-methanesulfonyl-pyridin-2-ylmethyl)-amide]
6 | Cc1cc(CNC(=O)c2cn(C(C)C)c(C)c(-c3cccc(C(F)F)c3)c2=O)ccc1S(C)(=O)=O [Example 28.2, 5-(3-Difluoromethyl-phenyl)-1-isopropyl-6-methyl-4-oxo-1,4-dihydro-pyridine-3-carboxylic acid 4-methanesulfonyl-3-methyl-benzylamide]
62 | Cc1c(-c2cccc(C(F)(F)F)c2)c(=O)c(C(=O)NCc2cnn(C)c2)cn1C(C)C [Example 3.4]
13 | CCS(=O)(=O)c1ccc(CNC(=O)c2cn(C(C)C)c(C)c(-c3cccc(C(F)(F)F)c3)c2=O)cc1 [Example 30.1, 1-Isopropyl-6-methyl-4-oxo-5-(3-trifluoromethyl-phenyl)-1,4-dihydro-pyridine-3-carboxylic acid 4-ethanesulfonyl-benzylamide]
51 | Cc1c(-c2cccc(C(F)F)c2)c(=O)c(C(=O)NCc2ccc(C#N)cc2)cn1C(C)C [Example 4.5]

SMILES | IC50 [nM]
Cc1c(-c2cccc(C(F)(F)F)c2)c(=O)c(C(=O)NCc2ccc(S(C)(=O)=O)cn2)cn1CC1CCOC1 (stereo not shown) [Example 2.4] | 73
CCCn1cc(C(=O)NCc2ccc(S(C)(=O)=O)cn2)c(=O)c(-c2cccc(C(F)(F)F)c2)c1C [Example 2.2] | 20
CCn1cc(C(=O)NCc2ccc(S(C)(=O)=O)cn2)c(=O)c(-c2cccc(C(F)(F)F)c2)c1C [Example 2.1] | 57
